The structures appear in SMILES notation.

In one test the test system is PC12 cells. As to the kind of experiment: In vitro neuroprotection against oxygen glucose deprivation (OGD), MTT viability readout. The class given is cell-based. The settings on record: OGD 90 min, reoxygenation, furoxan 1, 10 or 25 μM, 24 hr. On the procedure: FIGS. 3A-3C: Neuroprotection (FIG. 3A), MTT treatment was used to assess cell viability (FIG. 3B), and pCREB modulation (FIG. 3C) of furoxan compounds. Neuroprotection assay workflow: expose PC12 cells to oxygen glucose deprivation (OGD) for 90 min→reoxygenate and add furoxan (1, 10, or 25 μM)→incubate for 24 hr→MTT readout of viability. Data represented as mean and s.e.m. (n=3). *=p<0.05, **=p<0.01, ***=p<0.001 compared to vehicle control using one way ANOVA analysis with Dunnett's post-hoc test. Red dashed line indicates threshold of vehicle effects. For pCREB modulation, 31b (25 μM) was examined (PC-12 cells, 48 hr incubation) in the following: without insult, with OGD, L-NAME.
It has been shown that furoxans are protective against oxygen glucose deprivation (OGD), a commonly used cellular model of ischemic stroke. PC12 cells were submitted to OGD for 90 minutes followed by reoxygenation and treatment with varying concentrations of selected embodiments of compounds of Formula I (indicated in FIG. 3A). After 24 hr, MTT treatment was used to assess cell viability (FIG. 3B). […] It has been shown previously that 4-N-oxides release NO at a much slower rate than corresponding 2-N-oxides.

The subject of a further test is Male C57BL/6 mice. The experiment in a line: Step-through passive avoidance (STPA), scopolamine-induced amnesia. The class given is in vivo. The settings on record: scopolamine 1 mg/kg i.p. alone (vehicle treated: 270 s±30 s), 24 hr after training. Here is the method: FIGS. 4A-4B: STPA experimental timeline (FIG. 4A), and results of Male C57BL/6 mice administered either vehicle or 31b via i.p. injection at 60 min or 120 min prior to training in STPA (FIG. 4B). […] Memory retention was measured as latency to enter the dark compartment 24 h after training. Data represented as mean and s.e.m.
The STPA apparatus consisted of an acrylic box with an illuminated compartment connected to a darkened compartment by a small guillotine door. Mice were placed in the illuminated side and were trained against their natural tendency to translocate to the dark side using an aversive stimulus (shock via electrified floor grading). Memory consolidation is measured as the latency times to enter the dark compartment 24 hr after training.
All procedures were performed under the approved IACUC protocol #108451. Male C57BL/6 mice (Envigo), N=9 per group, were habituated at the animal facility for at least 14 days. Ear tags were applied and animals weighed. 2 hr prior to the drug adminstration the mice were individually acclimated to the illuminated compartment to assess tendency to enter the dark chamber (measured in seconds). In this phase no shock was be delivered. […] The mice were then administered either vehicle (95 [0.9% NaCl]:5 [DMSO]) or 31b (0.1, 1, 10, or 20 mg/kg) via i.p. injection (50 μL) at 1 h or 2 h prior to training. […] Mice were individually placed into the light compartment and upon translocation to the dark compartment the guiltine door closed and the mice were trained by delivering a mild adversive stimulus (0.5 mA) via the electrified floor grading of the dark chamber. Each mouse was held in the dark chamber for 30 seconds, then returned to their cage for 120 seconds before the second training session. […] Memory retention was measured 24 hours after training by placing the same mouse in the light chamber and measuring latency to enter the dark chamber (no aversive stimulus is delivered during the retention test). Data was analyzed by one way ANOVA analysis with Dunnett's post-hoc test.

For `CC1CCN(Cc2no[n+]([O-])c2-c2ccc(Br)cc2)CC1` [33b], in the test with PC12 cells, the “Neuroprotection against OGD (cell viability by MTT)” value (shortened to “Neuroprotection against OGD”) is “outperform the corresponding 2-N-oxides”.

Regarding `CC1CCN(Cc2no[n+]([O-])c2-c2ccc(OC(F)(F)F)cc2)CC1` [37b, 4-((4-methylpiperidin-1-yl)methyl)-3-(4-(trifluoromethoxy)phenyl)-1,2,5-oxadiazole 2-oxide], the “Neuroprotection against OGD” value in the test on PC12 cells is listed as “outperform the corresponding 2-N-oxides”.

As for `Cc1ccc(-c2c(CN3CCC(C)CC3)no[n+]2[O-])cc1` [38b, 4-((4-methylpiperdin-1-yl)methyl)-3-(p-tolyl)-1,2,5-oxadiazole 2-oxide], the “Neuroprotection against OGD” value with PC12 cells is on record as “outperform the corresponding 2-N-oxides”.

For `[2H]C1([2H])CC(C)CC([2H])([2H])N1Cc1no[n+]([O-])c1-c1ccc(F)cc1` [41b], the “Neuroprotection against OGD” value in the test on PC12 cells is on record as “outperform the corresponding 2-N-oxides”.

As for `CN1[C@@H]2C[C@@H](OC(=O)[C@H](CO)c3ccccc3)C[C@H]1[C@@H]1O[C@@H]12` [Scopolamine, reference compound], the “Latency to enter the dark compartment” value in the test with Male C57BL/6 mice was 63.5 s.

The record behind these values is US10913732B2, “Furoxans as therapies for neurodegenerative disorders” (The University of Toledo, priority 2016, dated 2021).
